Where “and” joins values, the source holds several entries; their conditions need not be identical. Equal entries are not always repeated. Where two headings read alike, the source gives them in different places.
How the values were obtained:
[1] = test system: 60 cancer cell lines (NCI 60 cancer cell line series); test: NCI-DTP in vitro cancer screen, sulforhodamine B (SRB) growth inhibition, 48 hour exposure; type: cell-based, human
Experimental: Cancer Cell Line Preparation. Sixty cancer cell lines were obtained from the National Cancer Institute Developmental Therapeutics Program (NCI-DTP). Procedures for growing cells and testing compounds have been described previously (Scudiero et al., Cancer Res. 1988, 48:4827-4833; Stinson et al., Anticancer Res.; Myers et al., Electrophoresis 1997, 18:647-653). Cells are plated on day 0 at a density individualized for each cell line so that they will generally be sub-confluent at the end of the assay period. On day 1, a compound is added in the format for a duplicate-well, 5-dose, ten-fold interval dose response study.
No-drug, no-cell and no-growth controls are included. On day 3 the cells are processed for staining with sulforhodamine B (SRB), which reflects the amount of cell mass present at the end of a 48 hour exposure to the test agent. From dose response curves based on the SRB data, various parameters can be determined. The one used in the present study is the G15o, defined as the concentration of compound required to inhibit growth of the cell line by 50%. More precisely, the quantity used in the calculation to be described is the potency measure -log{GI50}.
Activity database (A). Table IA, consisting of the growth inhibition (GI5o) values for the 60 cell lines and 24 compounds, was created from the NCI-DTP in vitro cancer screen database. This subset of compounds was selected from the larger 23,000 compound database available from the DTP. The compounds were selected on the basis of their known mechanism of action and chemical structure. The average potency—log{GI50} was extracted from the comma-delimited text files available through the Web at http://www.nci.nih.gov/intra/lmp/jnwbio.htmrl. Subsequently, these log{GI5o} values were inspected manually and classified as indicating either Low, Medium or High sensitivity to each compound.

[2] = test system: 60 cancer cell lines (NCI 60 cancer cell line series); settings: cited from earlier work

## OC[C@H]1O[C@@H](n2cnc3c2N=CNC[C@H]3O)C[C@@H]1O [2′-deoxycoformycin]
[1]
  1 # of Low: 9
  2 # of Medium: 43
  3 # of High: 8
  classification of cell line as Low(1), Medium(2) or High(3) sensitivity to compound: 2 and 1 and 3
  sensitivity class Prostate PC-3(I) CL11001: 1
  sensitivity class Renal 786-O CL9018: 2
  sensitivity class Renal A498 CL9013: 2
  sensitivity class Renal ACHN CL9023: 2
  sensitivity class Renal CAKI-1 CL9015: 3
  sensitivity class Renal RXF-393 CL9016: 3
  sensitivity class Renal SN12C CL9008: 2
  sensitivity class Renal TK10 CL9024: 1
  sensitivity class Renal UO-31 CL9004: 2
  sensitivity class of the cell line to the compound (1 Low, 2 Medium, 3 High): 3 and 2
[1]; Colon SW-620 (CL4009)
  classification of cell line as Low(1), Medium(2) or High(3) sensitivity to compound: 2
[1]; Leukemia CCRF-CEM(I) (CL7003)
  classification of cell line as Low(1), Medium(2) or High(3) sensitivity to compound: 2
[1]; Leukemia HL-60(I) (CL7008)
  classification of cell line as Low(1), Medium(2) or High(3) sensitivity to compound: 2
[1]; Leukemia K562(I) CL7005
  classification of cell line as Low(1), Medium(2) or High(3) sensitivity to compound: 2
[1]; Leukemia MOLT-4 (CL7006)
  classification of cell line as Low(1), Medium(2) or High(3) sensitivity to compound: 2
[1]; Leukemia RPMI-8226(I) (CL7010)
  classification of cell line as Low(1), Medium(2) or High(3) sensitivity to compound: 2
[1]; Leukemia SR CL7019
  classification of cell line as Low(1), Medium(2) or High(3) sensitivity to compound: 3
[1]; Melanoma LOX IMVI CL10001
  classification of cell line as Low(1), Medium(2) or High(3) sensitivity to compound: 2
[1]; Melanoma M14 (CL10014)
  classification of cell line as Low(1), Medium(2) or High(3) sensitivity to compound: 2
[1]; Melanoma MALME-3M CL10002
  classification of cell line as Low(1), Medium(2) or High(3) sensitivity to compound: 2
[1]; cell line NSCLC NCI-H23(I), CL1001
  sensitivity class NSCLC NCI-H23(I) CL1001: 2
[1]; cell line NSCLC NCI-H332M, CL1017
  sensitivity class NSCLC NCI-H332M CL1017: 2
[1]; cell line NSCLC NCI-H460, CL1021
  sensitivity class NSCLC NCI-H460 CL1021: 2
[1]; cell line NSCLC NCI-H522, CL1003
  sensitivity class NSCLC NCI-H522 CL1003: 3
[1]; cell line Ovarian IGROV1, CL6010
  sensitivity class Ovarian IGROV1 CL6010: 2
[1]; cell line Ovarian OVCAR-3, CL6001
  sensitivity class Ovarian OVCAR-3 CL6001: 2
[1]; cell line Ovarian OVCAR-4, CL6002
  sensitivity class Ovarian OVCAR-4 CL6002: 2
[1]; cell line Ovarian OVCAR-5, CL6003
  sensitivity class Ovarian OVCAR-5 CL6003: 1
[1]; cell line Ovarian OVCAR-8, CL6005
  sensitivity class Ovarian OVCAR-8 CL6005: 2
[1]; cell line Ovarian SK-OV-3, CL6011
  sensitivity class Ovarian SK-OV-3 CL6011: 2
[1]; cell line Prostate DU-145, CL11003
  sensitivity class Prostate DU-145 CL11003: 3
[2]; Colon SW-620 (CL4009)
  -Log (GI50): 3.4
[2]; Leukemia CCRF-CEM(I) (CL7003)
  -Log (GI50): 3.4
[2]; Leukemia HL-60(I) (CL7008)
  -Log (GI50): 3.4
[2]; Leukemia K562(I) CL7005
  -Log (GI50): 3.3
[2]; Leukemia MOLT-4 (CL7006)
  -Log (GI50): 3.4
[2]; Leukemia RPMI-8226(I) (CL7010)
  -Log (GI50): 3.3
[2]; Leukemia SR CL7019
  -Log (GI50): 3.4
[2]; Melanoma LOX IMVI CL10001
  -Log (GI50): 3.3
[2]; Melanoma M14 (CL10014)
  -Log (GI50): 3.4
[2]; Melanoma MALME-3M CL10002
  -Log (GI50): 3.3
[2]
  -Log (GI50): 3.5
